For test [1], the system named is S. cerevisiae vps1Δ mutant growth inhibition. Kind of test: growth inhibition of yeast vps1Δ mutant, dose response, S. cerevisiae, background strain comparison (AID 790).
Test in test [2]: as above
As to conditions: S. cerevisiae vps1Δ mutant growth inhibition; measured here: background strain growth inhibition.

Results on 66 compounds are retold here after PubChem BioAssay AID790 (SRMLSC, 2007).

SMILES strings stand for the structures. Activity calls are given as the source filed them. The rule behind the calls is not given here.

By IC50 is commonly meant the concentration needed to halve the response being measured. With `COC(=O)c1ccc(NC(=O)c2cn(-c3ccccc3)nc2-c2ccncc2)cc1`, the IC50 in test [1] is > 10 µM (inactive); in test [2], above 10 µM.

As to `COc1ccc(C2CC(=O)C3=C(C2)NC(C)=C(C(=O)Nc2ccccc2C)C3c2coc3ccc(C)cc3c2=O)cc1OC` (configuration not stated), the results for the IC50 in test [1] and in test [2] were > 10 µM (inactive) and above 10 µM, respectively.

With `CCCc1cc(NCCCCO)n2c(nc3ccccc32)c1C#N`, the IC50 was > 10 µM (inactive) in test [1] and above 10 µM in test [2].

On to `Cc1ccc(SC(=O)COc2ccc(C)c(C)c2)cc1`, for which the IC50 in test [1] is > 10 µM (inactive); in test [2] it was above 10 µM.

On to `O=C(Nc1cc(C(F)(F)F)ccc1-n1cncn1)c1ccc(-c2ccccc2)cc1`, for which the IC50 is > 10 µM (inactive) in test [1] and above 10 µM in test [2].

Turning to `Cc1ccc(N2CCN(S(=O)(=O)N3CCCCCC3)CC2)cc1Cl`, the IC50 in test [1] is > 10 µM (inactive); in test [2], above 10 µM.

With `Clc1ccc(-c2cnc(Oc3ccccc3)nc2)cc1`, the IC50 is > 10 µM (inactive) in test [1] and above 10 µM in test [2].

Take `Cc1sc(NC(=O)c2ccco2)c(C(c2cccnc2)N2CCC(C)CC2)c1C` (configuration not stated): the IC50 was > 10 µM (inactive) in test [1] and 5.77 µM in test [2].

For the compound `Cc1ccnc(N2C(=O)c3cccc4c([N+](=O)[O-])ccc(c34)C2=O)c1`, the values for the half-inhibitory concentration (IC50) in test [1] and in test [2] were 2.86 µM and 4.22 µM, respectively.

Regarding `CCOc1ccc(NC(=O)C/C(N)=N/O)cc1`, the figures for the IC50 in test [1] and in test [2] were > 10 µM (inactive) and above 10 µM, respectively.

Regarding `Cc1ccc(SC(C)C(=O)Nc2ncn[nH]2)cc1` (configuration not stated), the IC50 was > 10 µM (inactive) in test [1] and above 10 µM in test [2].

Regarding `O=C(COc1ccc(Cl)cc1Cl)N1CCN(C/C=C/c2ccccc2)CC1`, the IC50 in test [1] is 13.2 µM (inactive); in test [2] it was 7.14 µM.

For `O=S(=O)(c1cnccc1N1CCN(/N=C/c2ccc(Br)cc2)CC1)N1CCCCC1`, the IC50 in test [1] was > 10 µM (inactive); in test [2], above 10 µM.

As to `C/C(CCC12CC3CC(CC(C3)C1)C2)=N\NC(N)=S`, the IC50 in test [1] was 12.7 µM (inactive); in test [2], 5.28 µM.

Take `O=C1CC(N2CCN(c3ccc(Cl)c(Cl)c3)CC2)C(=O)N1` (configuration not stated): the 50% inhibitory concentration (IC50) in test [1] was 15.3 µM; in test [2] it was above 10 µM.

Take `CC(C)Cc1[nH]c(=O)c(C#N)c2c1CCC2`: the IC50 in test [1] was > 10 µM (inactive); in test [2] it was above 10 µM.

As for `O=C(c1ccc(Cl)cc1Cl)N1CCC(c2nc3c(nnn3Cc3ccco3)c(=O)[nH]2)CC1`, the values for the IC50 in test [1] and in test [2] were > 10 µM (inactive) and above 10 µM, respectively.

In the case of `COc1ccc2oc(=O)c(-c3nnc(NCc4ccco4)s3)cc2c1`, the IC50 in test [1] was > 10 µM (inactive); in test [2] it was above 10 µM.

Regarding `Cc1ccc(S(=O)(=O)N(CC(=O)N2CCC(C(N)=O)CC2)c2cccc(C(F)(F)F)c2)cc1`, the IC50 was > 10 µM (inactive) in test [1] and above 10 µM in test [2].

Turning to `Cc1ccc(S(=O)(=O)N2CC3CC(C2)c2cccc(=O)n2C3)cc1` (configuration not stated), the figures for the IC50 in test [1] and in test [2] were > 10 µM (inactive) and above 10 µM, respectively.

As to `CCCn1c(SCc2cc(=O)oc3ccc4ccccc4c23)n[nH]c1=O`, the results for the IC50 in test [1] and in test [2] were > 10 µM (inactive) and above 10 µM, respectively.

As for `c1coc(CNc2nc(N3CCCCC3)nc3ccccc23)c1`, the IC50 in test [1] was > 10 µM (inactive); in test [2], above 10 µM.

As for `O=C(CC(=O)c1cc(Cl)ccc1O)c1ccccc1`, the IC50 is 2.11 µM in test [1] and 12.7 µM in test [2].

In the case of `FC(F)(F)COc1nc(N2CCCCC2)nc(N2CCNCC2)n1`, the IC50 in test [1] was > 10 µM (inactive); in test [2] it was above 10 µM.

Regarding `O=C(NCC(=O)N(c1cccnc1)C(C(=O)NCc1ccco1)c1ccccc1)c1ccco1` (configuration not stated), the IC50 was > 10 µM (inactive) in test [1] and above 10 µM in test [2].

With `CCSc1nnc(NC(=O)NCC(F)(F)F)s1`, the IC50 in test [1] was > 10 µM (inactive); in test [2], above 10 µM.

In the case of `COCCCNc1ccnc2c(Cl)cccc12`, the IC50 in test [1] was > 10 µM (inactive); in test [2] it was above 10 µM.

As for `O=C(Nc1ccccc1)C1=C(O)CC(c2ccco2)CC1=Nc1ccccc1` (configuration not stated), the IC50 is > 10 µM (inactive) in test [1] and above 10 µM in test [2].

As to `O=C(CCl)c1ccc(Cc2ncc(C(F)(F)F)cc2Cl)s1`, the IC50 was 9.7 µM (inactive) in test [1] and 8.68 µM in test [2].

As for `CN1CCN(CCCNC(=O)Cn2nc(-c3ccccc3)ccc2=O)CC1`, the IC50 in test [1] is > 10 µM (inactive); in test [2], above 10 µM.

For `N#Cc1cn(-c2ccccc2)nc1-c1cc2ccccc2oc1=O`, the results for the IC50 in test [1] and in test [2] were > 10 µM (inactive) and above 10 µM, respectively.

On to `CN1C(=O)/C(=C/c2cccn2-c2ccc3ccccc3c2)C(=O)NC1=S`, for which the IC50 in test [1] was 14.2 µM (inactive); in test [2], 6.58 µM.

As to `O=S(=O)(NCC(c1cccnc1)N1CCN(c2ccccc2)CC1)c1cccs1` (configuration not stated), the IC50 in test [1] is 20.5 µM; in test [2], above 10 µM.

With `O=C(Nc1cccc(Cl)c1)N1CCN(C/C=C/c2ccccc2)CC1`, the IC50 in test [1] was > 10 µM (inactive); in test [2], above 10 µM.

Regarding `C=CCc1ccc(OCC(O)CN2CCC(Cc3ccccc3)CC2)c(OC)c1` (configuration not stated), the values for the IC50 in test [1] and in test [2] were 19.4 µM (inactive) and 19.1 µM, respectively.

Turning to `N#CC1=C(N)NC(SCc2ccc(F)cc2)=C(C#N)C12CCCCC2`, the IC50 in test [1] is 2.12 µM; in test [2], 16.3 µM.

Regarding `Cc1cc(=O)oc2c(CN3CCCCC3)c(O)c(Cl)cc12`, the IC50 in test [1] was > 10 µM (inactive); in test [2] it was above 10 µM.

On to `CCCn1nc([N+](=O)[O-])c(C(C#N)c2nc3ccccc3s2)c(Cl)c1=O` (configuration not stated), for which the IC50 in test [1] is 1.5 µM; in test [2] it was 2.16 µM.

For `CCn1c(=O)[nH]c2cc(C(=O)N3CCN(c4ccccc4)CC3)ccc2c1=O`, the IC50 in test [1] is > 10 µM (inactive); in test [2], above 10 µM.

Take `O=C(O)Cn1c(SCCOc2ccccc2F)nc2ccccc21`: the IC50 is > 10 µM (inactive) in test [1] and above 10 µM in test [2].

Consider `COc1cccc(NC(=O)c2ccc(CN3CCN(c4ccccc4)CC3)cc2)c1`, for which the IC50 in test [1] was > 10 µM (inactive); in test [2], above 10 µM.

Take `CCOC(=O)c1c(CN2CCCCC2C)oc2ccc(OC)cc12` (configuration not stated): the IC50 in test [1] is > 10 µM (inactive); in test [2], above 10 µM.

Take `O=C(Cn1ncc2c3ccccc3n(Cc3ccccc3F)c2c1=O)N1CCC2(CC1)OCCO2`: the IC50 in test [1] is > 10 µM (inactive); in test [2], above 10 µM.

With `Cc1ccc(OCC(O)CN2CCN(Cc3ccc4c(c3)OCO4)CC2)c(C)c1` (configuration not stated), the figures for the IC50 in test [1] and in test [2] were > 10 µM (inactive) and above 10 µM, respectively.

`Nc1c(C(=O)OCC2CCCO2)c2nc3ccccc3nc2n1-c1ccc2c(c1)OCCO2` (configuration not stated): the results for the IC50 in test [1] and in test [2] were > 10 µM (inactive) and above 10 µM, respectively.

For the compound `O=C(OCn1ncc(Cl)c(Cl)c1=O)c1ccccc1Cl`, the values for the IC50 in test [1] and in test [2] were 5.41 µM and 16.6 µM, respectively.

Turning to `Cc1ccc(C2(C(F)(F)F)N=C3Sc4cc(C)cc(C)c4N3C(=O)N2)cc1` (configuration not stated), the IC50 is 1.37 µM (inactive) in test [1] and 1.08 µM in test [2].

On to `NC(=O)c1c(NC(=O)CN2C(=O)CCC2=O)sc2c1CCCCC2`, for which the results for the IC50 in test [1] and in test [2] were > 10 µM (inactive) and above 10 µM, respectively.

With `Cc1cccc(-c2c3c(=O)n(C)c(=O)n(C)c3cn2C2CCCCC2)c1`, the IC50 in test [1] was > 10 µM (inactive); in test [2], above 10 µM.

In the case of `Cc1cccc(-n2c(N)c(C(=O)NCCN3CCOCC3)c3nc4ccccc4nc32)c1`, the IC50 in test [1] was > 10 µM (inactive); in test [2] it was above 10 µM.

As for `Cc1cc2ncn(CC(O)COc3cccc(C(=O)O)c3)c2cc1C` (configuration not stated), the IC50 in test [1] is > 10 µM (inactive); in test [2], above 10 µM.

With `COc1ccc(-c2nnc(CSc3nc4ccccc4c(=O)n3C)o2)cc1OC`, the IC50 in test [1] was > 10 µM (inactive); in test [2] it was above 10 µM.

On to `O=C(OCn1ncc(Br)c(Br)c1=O)c1ccc(F)cc1`, for which the results for the IC50 in test [1] and in test [2] were 3.91 µM and 5.38 µM, respectively.

Regarding `O=C(COc1ccc(Br)cc1F)NC1CCN(Cc2ccccc2)CC1`, the IC50 was > 10 µM (inactive) in test [1] and above 10 µM in test [2].

Consider `CC1CCCN(CCOCCOc2ccc(Cl)cc2Br)C1` (configuration not stated), for which the IC50 in test [1] is > 10 µM (inactive); in test [2], above 10 µM.

On to `COc1cccc(C(=O)N2CCN(C3CCC(c4ccccc4)CC3)CC2)c1OC` (configuration not stated), for which the results for the IC50 in test [1] and in test [2] were 23.3 µM and 23.9 µM, respectively.

On to `CC1CCCCN1CCNC(=O)Cn1nc(-c2ccccc2)ccc1=O` (configuration not stated), for which the IC50 in test [1] was > 10 µM (inactive); in test [2], above 10 µM.

As to `Cc1cc(=O)[nH]c(SCC(=O)c2ccc(C)c(C)c2)n1`, the results for the IC50 in test [1] and in test [2] were 0.896 µM and 2.31 µM, respectively.

Turning to `O=C(CCC(=O)OCC(=O)c1ccc(F)cc1)NC1CCCCC1`, the IC50 was > 10 µM (inactive) in test [1] and above 10 µM in test [2].

Consider `Cc1nnc(-c2cccc(Br)c2)c2cn(-c3ccccc3)nc12`, for which the IC50 was > 10 µM (inactive) in test [1] and above 10 µM in test [2].

`Cc1cc(C)c2c(c1)/C(=C/C(=O)c1ccc(Br)s1)C(=O)N2`: the IC50 in test [1] was 3.71 µM (inactive); in test [2] it was 1.42 µM.

For the compound `CC(=O)Nc1ccccc1NS(=O)(=O)c1ccc(Cl)cc1`, the IC50 is > 10 µM (inactive) in test [1] and above 10 µM in test [2].

Take `CCC(C)(C)NC(=O)CN(C(=O)CCC(=O)Nc1ccccn1)c1ccc(F)c(Cl)c1`: the IC50 is > 10 µM (inactive) in test [1] and above 10 µM in test [2].

For the compound `CCc1ccc(N(C(=O)c2csnn2)C(C(=O)NC(C)(C)C)c2ccncc2)cc1` (configuration not stated), the IC50 in test [1] is > 10 µM (inactive); in test [2], above 10 µM.

For the compound `O=C(NCc1ccc2c(c1)OCO2)c1ccc(CS(=O)(=O)c2cccc(C(F)(F)F)c2)o1`, the IC50 in test [1] was > 10 µM (inactive); in test [2] it was above 10 µM.

As for `COc1ccc(C(=O)c2c(C(F)(F)F)oc3c2C(=O)c2ccccc2C3=O)cc1`, the IC50 in test [1] is 1.99 µM; in test [2], 2.32 µM.
